Tests used:
α = conditions: cited from earlier work
Solubility in water = type: physicochemical

Q: Which results are given for `CCOc1ccccc1OCCNC(C)Cc1ccc(OC)c(S(N)(=O)=O)c1.Cl` (centres unmarked) [YM-12617, 5-{2-[2-(o-ethoxyphenoxy)ethylamino]propyl}-2-methoxybenzenesulfonamide hydrochloride]?
A: α-blocking action (α): shows an α-blocking action; solubility (Solubility in water): 3000 to 5000 µg/mL
